Reference: ChEMBL document CHEMBL4706583, “2-Anilinoquinoline based arylamides as broad spectrum anticancer agents with B-RAF/C-RAF kinase inhibitory effects: Design, synthesis, in vitro cell-based and oncogenic kinase assessments” (Eur J Med Chem, 2020)
The source made the active and inactive calls. No cut-off for these calls is given here.

How the values were obtained:
[1] = test system: Panel NCI-60 (60 carcinoma cell lines); experiment: Growth inhibition of human Panel NCI-60 (60 carcinoma cell lines) cells at 10 uM measured after 48 hrs by SRB assay relative to control; type: functional; details: read-out: GI
CCRF-CEM = experiment: Growth inhibition of human CCRF-CEM cells at 10 uM measured after 48 hrs by SRB assay relative to control; type: functional; details: read-out: GI
K562 = experiment: Growth inhibition of human K562 cells at 10 uM measured after 48 hrs by SRB assay relative to control; type: functional; details: read-out: GI
MOLT-4 = experiment: Growth inhibition of human MOLT-4 cells at 10 uM measured after 48 hrs by SRB assay relative to control; type: functional; details: read-out: GI
RPMI-8226 = experiment: Growth inhibition of human RPMI-8226 cells at 10 uM measured after 48 hrs by SRB assay relative to control; type: functional; details: read-out: GI
SR = experiment: Growth inhibition of human SR cells at 10 uM measured after 48 hrs by SRB assay relative to control; type: functional; details: read-out: GI
A549 = experiment: Growth inhibition of human A549 cells at 10 uM measured after 48 hrs by SRB assay relative to control; type: functional; details: read-out: GI
HOP-92 = experiment: Growth inhibition of human HOP-92 cells at 10 uM measured after 48 hrs by SRB assay relative to control; type: functional; details: read-out: GI
NCI-H522 = experiment: Growth inhibition of human NCI-H522 cells at 10 uM measured after 48 hrs by SRB assay relative to control; type: functional; details: read-out: GI
HCT-116 = experiment: Growth inhibition of human HCT-116 cells at 10 uM measured after 48 hrs by SRB assay relative to control; type: functional; details: read-out: GI
HT-29 = experiment: Growth inhibition of human HT-29 cells at 10 uM measured after 48 hrs by SRB assay relative to control; type: functional; details: read-out: GI
786-0 = experiment: Growth inhibition of human 786-0 cells at 10 uM measured after 48 hrs by SRB assay relative to control; type: functional; details: read-out: GI
A498 = experiment: Growth inhibition of human A498 cells at 10 uM measured after 48 hrs by SRB assay relative to control; type: functional; details: read-out: GI
UO-31 = experiment: Growth inhibition of human UO-31 cells at 10 uM measured after 48 hrs by SRB assay relative to control; type: functional; details: read-out: GI
PC-3 = experiment: Growth inhibition of human PC-3 cells at 10 uM measured after 48 hrs by SRB assay relative to control; type: functional; details: read-out: GI
T47D = experiment: Growth inhibition of human T47D cells at 10 uM measured after 48 hrs by SRB assay relative to control; type: functional; details: read-out: GI
[2] = target: RAF proto-oncogene serine/threonine-protein kinase (Homo sapiens, UniProt P04049); experiment: Inhibition of human CRAF using MEK1 (K97R) as substrate in presence of [gamma-33P]ATP by scintillation counting method
[3] = target: Serine/threonine-protein kinase B-raf (Homo sapiens, UniProt P15056); experiment: Inhibition of human BRAF using MEK1 (K97R) as substrate in presence of [gamma-33P]ATP by scintillation counting method
[4] = target: Serine/threonine-protein kinase B-raf (Homo sapiens, UniProt P15056, V600E); experiment: Inhibition of human BRAF V600E mutant using MEK1 (K97R) as substrate in presence of [gamma-33P]ATP by scintillation counting method
Homo sapiens = species on record: Homo sapiens; experiment: Selectivity ratio of IC50 for inhibition of human BRAF V600E mutant to IC50 for inhibition of human CRAF
Sus scrofa = species on record: Sus scrofa; experiment: Induction of porcine brain tubulin polymerization at 10 uM measured at 30 secs interval for 60 mins by fluorescence assay; type: tissue-based

RAF proto-oncogene serine/threonine-protein kinase, sequence (P04049 whole entry): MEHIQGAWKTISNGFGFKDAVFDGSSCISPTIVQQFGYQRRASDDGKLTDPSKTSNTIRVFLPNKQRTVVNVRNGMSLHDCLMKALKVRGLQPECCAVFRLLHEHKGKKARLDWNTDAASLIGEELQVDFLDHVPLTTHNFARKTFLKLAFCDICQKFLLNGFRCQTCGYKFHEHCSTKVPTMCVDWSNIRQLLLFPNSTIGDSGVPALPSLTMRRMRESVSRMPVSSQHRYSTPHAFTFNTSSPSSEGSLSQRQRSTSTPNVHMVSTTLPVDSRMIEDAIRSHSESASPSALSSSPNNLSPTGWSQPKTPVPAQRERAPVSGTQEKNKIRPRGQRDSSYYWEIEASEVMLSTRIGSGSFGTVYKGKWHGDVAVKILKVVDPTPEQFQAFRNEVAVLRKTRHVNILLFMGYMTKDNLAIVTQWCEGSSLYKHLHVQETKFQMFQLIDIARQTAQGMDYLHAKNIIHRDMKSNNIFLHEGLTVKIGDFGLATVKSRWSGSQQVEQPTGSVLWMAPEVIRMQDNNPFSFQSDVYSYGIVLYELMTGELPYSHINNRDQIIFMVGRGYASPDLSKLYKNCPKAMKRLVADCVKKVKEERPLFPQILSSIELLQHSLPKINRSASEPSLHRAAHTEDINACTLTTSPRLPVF
Serine/threonine-protein kinase B-raf (Homo sapiens, UniProt P15056, V600E), sequence (P15056 2-766 V600E limits assumed): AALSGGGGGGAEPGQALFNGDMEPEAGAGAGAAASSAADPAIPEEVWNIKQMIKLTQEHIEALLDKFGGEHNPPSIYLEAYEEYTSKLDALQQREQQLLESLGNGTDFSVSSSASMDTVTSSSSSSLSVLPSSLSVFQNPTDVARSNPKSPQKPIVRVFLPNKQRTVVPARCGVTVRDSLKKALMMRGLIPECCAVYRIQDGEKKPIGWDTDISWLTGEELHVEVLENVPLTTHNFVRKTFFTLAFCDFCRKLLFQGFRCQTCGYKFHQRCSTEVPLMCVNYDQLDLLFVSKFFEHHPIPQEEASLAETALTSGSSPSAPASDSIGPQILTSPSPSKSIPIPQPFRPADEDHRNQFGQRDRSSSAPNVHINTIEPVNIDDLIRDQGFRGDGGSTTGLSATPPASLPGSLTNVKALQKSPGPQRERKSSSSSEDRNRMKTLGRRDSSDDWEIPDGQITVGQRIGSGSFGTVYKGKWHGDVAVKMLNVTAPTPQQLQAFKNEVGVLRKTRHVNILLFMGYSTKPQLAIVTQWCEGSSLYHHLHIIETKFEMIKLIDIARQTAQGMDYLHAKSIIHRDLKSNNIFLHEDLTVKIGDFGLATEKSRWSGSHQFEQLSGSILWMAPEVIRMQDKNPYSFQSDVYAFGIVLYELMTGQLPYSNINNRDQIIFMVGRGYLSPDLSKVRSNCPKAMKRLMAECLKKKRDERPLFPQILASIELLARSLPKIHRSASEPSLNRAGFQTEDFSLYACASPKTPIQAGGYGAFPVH
Serine/threonine-protein kinase B-raf (Homo sapiens, UniProt P15056), sequence (P15056 whole entry): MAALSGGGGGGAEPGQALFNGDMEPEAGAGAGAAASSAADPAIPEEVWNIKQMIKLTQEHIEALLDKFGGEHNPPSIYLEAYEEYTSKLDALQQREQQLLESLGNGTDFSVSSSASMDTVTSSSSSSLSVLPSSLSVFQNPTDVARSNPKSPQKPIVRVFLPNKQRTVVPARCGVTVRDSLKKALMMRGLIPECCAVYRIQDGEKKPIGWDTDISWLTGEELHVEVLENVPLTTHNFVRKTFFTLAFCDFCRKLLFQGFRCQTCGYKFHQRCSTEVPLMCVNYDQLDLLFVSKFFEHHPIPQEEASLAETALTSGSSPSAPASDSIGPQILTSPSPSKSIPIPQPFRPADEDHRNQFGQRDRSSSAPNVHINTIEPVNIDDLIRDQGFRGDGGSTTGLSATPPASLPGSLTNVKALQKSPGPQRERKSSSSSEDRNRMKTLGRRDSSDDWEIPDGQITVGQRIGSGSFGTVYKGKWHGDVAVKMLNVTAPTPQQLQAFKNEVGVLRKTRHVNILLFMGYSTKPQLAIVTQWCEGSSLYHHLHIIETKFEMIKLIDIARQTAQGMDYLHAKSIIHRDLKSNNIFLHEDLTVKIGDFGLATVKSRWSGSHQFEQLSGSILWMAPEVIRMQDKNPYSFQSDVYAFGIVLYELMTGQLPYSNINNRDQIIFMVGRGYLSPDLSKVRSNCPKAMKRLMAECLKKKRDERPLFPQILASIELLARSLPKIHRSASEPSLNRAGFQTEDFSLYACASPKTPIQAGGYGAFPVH

IC50 [2] [µM]	IC50 [3] [µM]	IC50 [4] [µM]	Compound	inhibition of growth at 10 µM [1] [%]	inhibition of growth at 10 µM (CCRF-CEM) [%]	inhibition of growth at 10 µM (K562) [%]	inhibition of growth at 10 µM (MOLT-4) [%]	inhibition of growth at 10 µM (RPMI-8226) [%]	inhibition of growth at 10 µM (SR) [%]	inhibition of growth at 10 µM (A549) [%]	inhibition of growth at 10 µM (HOP-92) [%]	inhibition of growth at 10 µM (NCI-H522) [%]	inhibition of growth at 10 µM (HCT-116) [%]	inhibition of growth at 10 µM (HT-29) [%]	inhibition of growth at 10 µM (786-0) [%]	inhibition of growth at 10 µM (A498) [%]	inhibition of growth at 10 µM (UO-31) [%]	inhibition of growth at 10 µM (PC-3) [%]	inhibition of growth at 10 µM (T47D) [%]	further results
–	–	–	COc1cccc2nc(Nc3cccc(NC(=O)c4ccc(Cl)c(C(F)(F)F)c4)c3)ccc12	12.9	32.9	56.8	54.8	31.8	48	< 20	21.5	27.4	< 20	< 20	< 20	27.5	37.6	50.3	21.3	–
0.414	9.28	1.1	COc1cccc2nc(Nc3cccc(NC(=O)c4cc(-n5cnc(C)c5)cc(C(F)(F)F)c4)c3)ccc12	32.6	–	–	–	–	–	–	–	–	–	–	–	–	–	–	–	Ratio IC50 (Homo sapiens): 2
–	–	–	CC(=O)O[C@H]1C(=O)[C@@]2(C)[C@H]([C@H](OC(=O)c3ccccc3)[C@]3(O)C[C@H](OC(=O)[C@H](O)[C@@H](NC(=O)c4ccccc4)c4ccccc4)C(C)=C1C3(C)C)[C@]1(OC(C)=O)CO[C@@H]1C[C@@H]2O	–	–	–	–	–	–	–	–	–	–	–	–	–	–	–	–	Activity (Sus scrofa): Active
–	–	–	COc1cccc2nc(Nc3ccc(NC(=O)c4ccc5c(c4)OCCO5)cc3)ccc12	-1.17	< 20	< 20	< 20	< 20	< 20	< 20	< 20	< 20	< 20	< 20	< 20	< 20	< 20	< 20	< 20	–
–	–	–	COc1cccc2nc(Nc3ccc(NC(=O)c4ccc(Cl)c(C(F)(F)F)c4)cc3)ccc12	6.32	< 20	47.5	27.6	< 20	< 20	< 20	32	< 20	< 20	21.8	< 20	22.6	< 20	< 20	< 20	–
4.79	> 100	9.45	COc1cccc2nc(Nc3cccc(NC(=O)c4cc(C(F)(F)F)cc(C(F)(F)F)c4)c3)ccc12	13.6	34.4	77.3	65.2	41.9	57.4	48	67.5	23.5	< 20	< 20	< 20	28.6	28.2	62.7	< 20	–
–	–	–	COc1cccc2nc(Nc3cccc(NC(=O)c4cccc(Cl)n4)c3)ccc12	4.88	< 20	< 20	23.3	< 20	< 20	< 20	< 20	< 20	< 20	< 20	< 20	32.4	< 20	20.6	< 20	–
–	–	–	COc1cccc2nc(Nc3cccc(NC(=O)c4ccc5ncccc5c4)c3)ccc12	28.6	36.9	61.1	64.2	94.6	55.9	20.9	48.5	< 20	53.3	42.4	51.4	< 20	22.9	56.2	58	–
1.44	40.9	4.57	COc1cccc2nc(Nc3cccc(NC(=O)c4ccc(N5CCOCC5)c(C(F)(F)F)c4)c3)ccc12	59	–	–	–	–	–	–	–	–	–	87.2	–	–	–	–	–	Ratio IC50 (Homo sapiens): 2
0.616	5.87	1.49	COc1cccc2nc(Nc3cccc(NC(=O)c4cc(N5CCOCC5)cc(C(F)(F)F)c4)c3)ccc12	38.3	–	–	–	–	–	–	–	–	–	–	–	–	–	–	–	Ratio IC50 (Homo sapiens): 2
–	–	–	COc1cccc2nc(Nc3cccc(NC(=O)c4ccc5c(c4)OCCO5)c3)ccc12	17.8	33.4	67.8	75.2	39.7	56.7	< 20	< 20	< 20	32.5	< 20	48.3	26.2	< 20	32.1	46	–
